Values of other authors in patent publication US10413531B2, “Methods of treating bladder cancer” (Abraxis BioScience, LLC, priority 2013, dated 2019).

Columns and labels:
ABCB1/ABCG2 = conditions: Lin et al. (2013) Int J Cancer
[1] = Lin et al. (2013) Int J Cancer

SMILES: COc1ccc(COc2cc3oc(=O)c4cc(C(C)O)ccc4c3cc2OC)cc1 (centres unmarked) [Palomid 529]
- affinity for ABCB1/ABCG2 (ABCB1/ABCG2): lacks affinity for ABCB1/ABCG2
- brain penetration [1]: good brain penetration
